PubChem BioAssay AID248 (DTP/NCI, 2004)
Several values for one entry are separate records, joined by “and”; a condition that tells them apart may be missing. Equal values may be shown once. Inconclusive results and toxic doses are left out. Rule as the data show it: active = T/C of 150% or more; inactive = T/C below 125%.

System: L1210 leukemia ip in BDF1 mice, survival T/C
Test: NCI In Vivo Anticancer Drug Screen. Data for tumor model L1210 Leukemia (intraperitoneal) in B6D2F1 (BDF1) mice
Settings: endpoint: mean survival time, higher = longer survival
In short: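 Mice bearing the transplanted tumor received compound or vehicle. Survival of the treated group was divided by that of the vehicle-treated control group to give the ratio.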

[1] = dose: 100.0 mg/kg/injection, schedule: Q01DX009 (ip), vehicle: saline with Tween-80
[2] = dose: 100.0 mg/kg/injection, schedule: Q04DX002 (ip), vehicle: Klucel (hydroxypropylcellulose) (HPC)
[3] = dose: 200.0 mg/kg/injection, schedule: Q01DX009 (ip), vehicle: saline with Tween-80
[4] = dose: 200.0 mg/kg/injection, schedule: Q04DX002 (ip), vehicle: Klucel (hydroxypropylcellulose) (HPC)
[5] = dose: 400.0 mg/kg/injection, schedule: Q01DX009 (ip), vehicle: saline with Tween-80
[6] = dose: 400.0 mg/kg/injection, schedule: Q04DX002 (ip), vehicle: Klucel (hydroxypropylcellulose) (HPC)
[7] = dose: 100.0 mg/kg/injection, schedule: Q01DX001 (ip), vehicle: Klucel (hydroxypropylcellulose) (HPC)
[8] = dose: 200.0 mg/kg/injection, schedule: Q01DX001 (ip), vehicle: Klucel (hydroxypropylcellulose) (HPC)
[9] = dose: 100.0 mg/kg/injection, schedule: Q01DX001 (ip), vehicle: saline
[10] = dose: 200.0 mg/kg/injection, schedule: Q01DX001 (ip), vehicle: saline
[11] = dose: 400.0 mg/kg/injection, schedule: Q01DX001 (ip), vehicle: saline
[12] = dose: 100.0 mg/kg/injection, schedule: Q01DX009 (ip), vehicle: Klucel (hydroxypropylcellulose) (HPC)
[13] = dose: 200.0 mg/kg/injection, schedule: Q01DX009 (ip), vehicle: Klucel (hydroxypropylcellulose) (HPC)
[14] = dose: 400.0 mg/kg/injection, schedule: Q01DX009 (ip), vehicle: Klucel (hydroxypropylcellulose) (HPC)
[15] = dose: 75.0 mg/kg/injection, schedule: Q01DX001 (ip), vehicle: other
[16] = dose: 100.0 mg/kg/injection, schedule: Q04DX003 (ip), vehicle: Klucel (hydroxypropylcellulose) (HPC)
[17] = dose: 200.0 mg/kg/injection, schedule: Q04DX003 (ip), vehicle: Klucel (hydroxypropylcellulose) (HPC)
[18] = dose: 400.0 mg/kg/injection, schedule: Q04DX003 (ip), vehicle: Klucel (hydroxypropylcellulose) (HPC)
[19] = dose: 75.0 mg/kg/injection, schedule: Q01DX001 (ip), vehicle: carboxymethylcellulose (CMC)
[20] = dose: 150.0 mg/kg/injection, schedule: Q01DX001 (ip), vehicle: carboxymethylcellulose (CMC)

Measured: T/C

O=C(O)CCOc1ccccc1Cl
inactive: [1] 91 % of control | [2] 98 % of control | [3] 95 % of control | [4] 95 % of control | [5] 93 % of control | [6] 106 % of control

Cc1ncc(C#N)n1C(C)c1ccccc1 (stereo unspecified)
inactive: [7] 103 % of control | [8] 100 % of control

CCCCCCC1c2ccccc2CC1CCCC (stereo unspecified)
inactive: dose: 50.0 mg/kg/injection, schedule: Q01DX001 (ip), vehicle: saline 102 % of control | [9] 104 % of control | [10] 102 % of control | [11] 98 % of control

COc1cc(NS(=O)(=O)c2ccc(C(C)=O)cc2)nc(OC)n1
inactive: [12] 94 % of control | [13] 102 % of control | [14] 98 % of control

C=C(CCCCCCCCCCCCCCCC)C(=O)O
inactive: dose: 100.0 mg/kg/injection, schedule: Q04DX002 (ip), vehicle: saline with Tween-80 91 % of control | dose: 400.0 mg/kg/injection, schedule: Q04DX002 (ip), vehicle: saline with Tween-80 88 % of control

CCOP(=O)(OCC)c1ccc(N=Cc2cnc3nc(NC(C)=O)[nH]c(=O)c3n2)cc1
inactive: dose: 100.0 mg/kg/injection, schedule: Q01DX001 (ip), vehicle: other 109 % of control | dose: 200.0 mg/kg/injection, schedule: Q01DX001 (ip), vehicle: other 112 % of control | dose: 400.0 mg/kg/injection, schedule: Q01DX001 (ip), vehicle: other 101 % of control

CC(=O)CC(C)=NCC(C)N=C(C)CC(C)=O (stereo unspecified)
inactive: [1] 89 % of control | dose: 100.0 mg/kg/injection, schedule: Q04DX003 (ip), vehicle: saline with Tween-80 100 % of control | [3] 98 % of control | dose: 200.0 mg/kg/injection, schedule: Q04DX003 (ip), vehicle: saline with Tween-80 101 % of control | dose: 400.0 mg/kg/injection, schedule: Q04DX003 (ip), vehicle: saline with Tween-80 93 % of control

CC(Cl)(Cl)[N+](=O)[O-]
inactive: [1] 104 % of control | [3] 104 % of control

NC(N)=N/N=C/C/C=N/N=C(N)N
inactive: dose: 15.0 mg/kg/injection, schedule: Q01DX Z (ip), vehicle: saline 97 % of control | dose: 30.0 mg/kg/injection, schedule: Q01DX Z (ip), vehicle: saline 100 % of control | dose: 60.0 mg/kg/injection, schedule: Q01DX Z (ip), vehicle: saline 96 % of control | dose: 120.0 mg/kg/injection, schedule: Q01DX Z (ip), vehicle: saline 100 % of control | dose: 120.0 mg/kg/injection, schedule: Q01DX Z (oral), vehicle: saline 102 % of control | dose: 240.0 mg/kg/injection, schedule: Q01DX Z (oral), vehicle: saline 102 % of control | dose: 480.0 mg/kg/injection, schedule: Q01DX Z (oral), vehicle: saline 107 % of control | dose: 960.0 mg/kg/injection, schedule: Q01DX Z (oral), vehicle: saline 103 % of control

Cc1ccc(C)c(NC(=O)Nc2cc(C)on2)c1
inactive: [1] 86 % of control | [3] 97 % of control | [5] 94 % of control

OCCSSSCCO
inactive: [15] 105 % of control | dose: 150.0 mg/kg/injection, schedule: Q01DX001 (ip), vehicle: other 115 % of control

[Br][Ga]([Br])[Br]
inactive: [9] 100 % of control | [10] 101 % of control | [11] 103 % of control

O=S(=O)(c1ccc(Nc2nc(Cl)nc(Cl)n2)cc1)N(CCCl)CCCl
inactive: [12] 103 % of control | [13] 104 % of control | [14] 107 % of control

CC(C)NC(=S)Nc1ccccc1
inactive: [15] 102 % of control

CCOC(=O)NCCBr
inactive: [12] 102 % of control | [16] 101 % of control | [13] 102 % of control | [17] 106 % of control | [14] 100 % of control | [18] 94 % of control

COc1ccc(Cc2c3cc(OC)c(OC)cc3cc[n+]2Cc2ccc(N(CCCl)CCCl)cc2)cc1OC
inactive: [19] 100 % of control | [20] 94 % of control

F[Si](F)(c1ccccc1)c1ccccc1
inactive: dose: 75.0 mg/kg/injection, schedule: Q01DX001 (ip), vehicle: saline 105 % of control | dose: 150.0 mg/kg/injection, schedule: Q01DX001 (ip), vehicle: saline 100 % of control

Cc1cccc(Cl)c1NC(=O)CCC(=O)O
inactive: [9] 101 % of control | [10] 101 % of control | [11] 95 % of control

OCc1cscc1-c1cscc1CO
inactive: dose: 100.0 mg/kg/injection, schedule: Q01DX001 (ip), vehicle: saline with Tween-80 97 % of control | dose: 200.0 mg/kg/injection, schedule: Q01DX001 (ip), vehicle: saline with Tween-80 111 % of control | dose: 400.0 mg/kg/injection, schedule: Q01DX001 (ip), vehicle: saline with Tween-80 93 % of control

COc1ccc(NC(=O)COc2ccc(C)cc2C)cc1
inactive: [2] 95 % of control | [4] 103 % of control | [6] 89 % of control

NC(Cc1ccccc1)C(=O)O (stereo unspecified)
inactive: dose: 75.0 mg/kg/injection, schedule: Q01DX001 (ip), vehicle: saline with Tween-80 102 % of control | dose: 100.0 mg/kg/injection, schedule: Q01DX001 (ip), vehicle: carboxymethylcellulose (CMC) 93 % of control | [16] 102 % of control | dose: 150.0 mg/kg/injection, schedule: Q01DX001 (ip), vehicle: saline with Tween-80 102 % of control | dose: 200.0 mg/kg/injection, schedule: Q01DX001 (ip), vehicle: carboxymethylcellulose (CMC) 96 % of control | [17] 86 % of control | dose: 300.0 mg/kg/injection, schedule: Q01DX001 (ip), vehicle: saline with Tween-80 98 % of control | dose: 400.0 mg/kg/injection, schedule: Q01DX001 (ip), vehicle: carboxymethylcellulose (CMC) 93 % of control

CCCCCCC(C)OC(=O)c1ccccc1C(=O)OC(C)CCCCCC (stereo unspecified)
inactive: dose: 100.0 mg/kg/injection, schedule: Q04DX002 (ip), vehicle: saline 102 % of control | dose: 200.0 mg/kg/injection, schedule: Q04DX002 (ip), vehicle: saline 95 % of control | dose: 400.0 mg/kg/injection, schedule: Q04DX002 (ip), vehicle: saline 102 % of control

Cc1ccc(CCOC(=O)c2cc([N+](=O)[O-])cc([N+](=O)[O-])c2)cc1
inactive: [19] 94 % of control | [20] 94 % of control | dose: 300.0 mg/kg/injection, schedule: Q01DX001 (ip), vehicle: carboxymethylcellulose (CMC) 90 % of control

COc1cccc(/C(=C/c2ccc([N+](=O)[O-])cc2)C(=O)O)c1
inactive: [7] 100 % of control | [12] 97 % of control and 100 % of control | [16] 100 % of control | [8] 109 % of control | [13] 96 % of control and 87 % of control | [17] 105 % of control | dose: 400.0 mg/kg/injection, schedule: Q01DX001 (ip), vehicle: Klucel (hydroxypropylcellulose) (HPC) 97 % of control | [14] 100 % of control and 91 % of control | [18] 105 % of control

COC(=O)c1ccccc1NC(=O)c1cccc(Cl)c1
inactive: [12] 114 % of control | [13] 118 % of control | [14] 102 % of control

CC(C)C(=O)[O][Pb]([CH3])([CH3])[CH3]
inactive: dose: 12.5 mg/kg/injection, schedule: Q04DX002 (ip), vehicle: saline 90 % of control

O=C(Nc1cccc(O)c1)OCCCl
inactive: dose: 100.0 mg/kg/injection, schedule: Q01DX001 (ip), vehicle: saline + alcohol 105 % of control | dose: 200.0 mg/kg/injection, schedule: Q01DX001 (ip), vehicle: saline + alcohol 102 % of control | dose: 400.0 mg/kg/injection, schedule: Q01DX001 (ip), vehicle: saline + alcohol 92 % of control

CC1(C)N=C(N)N=C(N)N1c1ccc(CCNS(=O)(=O)c2cccc(S(=O)(=O)F)c2)cc1
inactive: [9] 96 % of control | [10] 94 % of control | [11] 96 % of control

COC(=O)C1C(O)CC2CCC1[N+]2(C)C (stereo unspecified)
inactive: [9] 96 % of control | [10] 100 % of control
